Where two headings read alike, the source gives them in different places.
Columns and labels:
[1] = Stability in mouse liver microsomes; type: in vitro ADME
Experimental: (§1) Half-life Human Microsomes: Compounds were evaluated for stability in human liver microsomes. A 10 mM stock solution of the compound being evaluated was prepared in DMSO and diluted with water:acetonitrile (1:1) to a concentration of 1 mM. A working concentration of 100 μM was prepared by further dilution with water:acetonitrile (1:1). To make the preincubation mixture, 2.5 μL of the diluted compound was combined with 75 μL of human liver microsomes at 3.33 mg/mL, and 85 μL of 100 mM potassium phosphate buffer, and this mixture was pre-incubated for 10 min at 37° C. To make the 60 minute mixture without cofactor, 32.5 μL of the preincubation mixture was combined with 17.5 μL of 100 mM potassium phosphate buffer and incubated for 60 min at 37° C. To make the 0 min sample with cofactor (NADPH), 16.25 μL of the preincubation mixture was combined with 200 μL of acetonitrile containing internal standard and 8.75 μL of cofactor (NADPH). To make the incubation mixture, 62 μL of cofactor (2.85 mM) was combined with the remaining incubation mixture, and incubated for 60 min at 37° C. To prepare the sample mixture to be evaluated, 25 μL incubation mixture was combined with 200 μL of acetonitrile containing internal standard and vortexed for 5 min at 1200 rpm, then centrifuged for 10 min at 4000 rpm. The supernatant was diluted 2 fold with water and injected on LC-MS/MS. The sample mixture was evaluated by LC-MS/MS using 10 mM ammonium acetate with 0.1% FA as the aqueous mobile phase, and methanol as the organic mobile phase.
Half-life Mouse Microsomes: Compounds were evaluated in mouse liver microsomes following a similar procedure as described above for human liver microsomes. A similar procedure could be used to evaluate compounds in rat liver microsomes.

[2] = tested on: SREBP; experiment: Reporter Screening Assay (SRE-luciferase reporter, HepG2); type: cell-based; conditions: SREBPv1 Reporter cell line HepG2, 24 hours, 0.01 uM to 10 uM, read-out: I: Reporter Screening Assay (Ave EC50 (nM))
Experimental: Reporter Screening Assay: This assay was used to evaluate the effect on transcriptional activity SREBP of selected compounds using an SRE-luciferase reporter construct. On day 1, 10,000 cells were seeded in a 96 well (white) plate as per the plate map in Growth media without antibiotics. Cells were incubated at 37° C. for 8 hours. After 8 hours, cells were washed with DPBS for complete removal of FBS. DPBS was completely removed and Growth media was replaced with phenol free treatment medium (90 μl) with different FBS concentrations. The cells were then incubated at 37° C. for 24 hours with varying doses (0.01 uM to 10 uM) of compounds. Then a Luciferase assay was performed.
Reagents for performing Luciferase assay were stored at −20° C. To a tube of lyophilized assay substrate was added 1 mL Substrate Solvent and mixed well. The Substrate tube after reconstitution was covered with aluminum foil so as to keep it protected from light. The assay buffer was thawed to room temperature. To 20 mL Assay Buffer was added 200 µL of reconstituted 100× Substrate and mixed well. The reconstituted substrate as well as the assay solution (buffer + substrate) was protected from light throughout the procedure by keeping it covered with aluminum foil. Using a multi-channel pipette, 100 μL Assay Solution (buffer + substrate) was added directly to each sample well in Plate 1, which was incubated for 30 min (plate was covered with aluminum foil). After 30 min incubation, the plate was read for total luminescence. Each well was read for 2 seconds in a plate luminometer. (Microplate reader Envision Microplate reader from Perkin Elmer). Precaution was taken to incubate plate exactly for 30 min prior to reading on the plate reader.
Reporter Assay Materials: SREBPv1 Reporter cell line: HepG2-#32251. Growth Medium: MEM (Corning 10-010), 10% FBS, 1% GlutaMax (Invitrogen Catalog #35050061), […] (Invitrogen Catalog #A1113803) and 1% Penicillin-Streptomycin (Pen-Strep). Treatment Media: Phenol-free MEM (Invitrogen Catalog #51200-038) and 1% GlutaMax (Invitrogen Catalog #35050061). Luciferase Assay: LightSwitch Luciferase Assay Kit (Catalog #32032). LDH assay: Pierce LDH Cytotoxicity Assay Kit (Catalog #SD249616).

[3] = Stability in human liver microsomes; type: in vitro ADME; conditions: 60 min at 37° C., NADPH
Experimental: as §1

[4] = tested on: ACACA; experiment: Gene expression in HepG2 cells (qPCR), ACACA; type: cell-based; conditions: for 48 hours, normalized to β-Actin, relative to mock or vehicle treated cells (ΔΔCT)
Experimental: Gene Expression: The effect of selected compounds on the gene expression of HepG2 cells was evaluated. HepG2 cells (P2) were seeded in 24 well plate (80,000 cells/well) for RNA extraction and in a 96 well plate (10,000 cells/well) for Cell Titer Glow (CTG). The media used was DMEM and contained 10% FBS. Each compound was evaluated at […] for 48 hours. Two biological replicates per experimental group were evaluated for RNA. For gene analysis, RNA was harvested with RNEasy kit and 20-100 ng used to synthesize cDNA with random primers. Quantitative PCR was performed on 1 pg to 100 ng cDNA for the following genes: ACACA, ACLY, FASN, LSS, PNPLA3. Gene expression levels were normalized with housekeeping gene, β-Actin, and relative expression levels determined using ΔΔCT method comparing treated to mock or vehicle treated cells as a baseline. “Total” gene expression refers to the average of the values of the 5 genes listed above.

percent remaining after 60 min in mouse liver microsomes [1] | EC50 ([2]; Homo sapiens) | percent remaining after 60 min in human liver microsomes [3] | EC50 [2] | Compound | A: ACACA, effect of compounds on gene expression of HepG2 cells [4]
+++ (≥60.1 = +++) | < 249 nM | +++ (≥60.1 = +++) | – | O=C(c1ccc(-c2cc(-c3ccnc(OCC4CC(O)C4)c3)cs2)c(Cl)c1)N1CCC(O)CC1 (centres unmarked) [Compound I-1629118, (3-chloro-4-(4-(2-((3-hydroxycyclobutyl)methoxy)pyridin-4-yl)thiophen-2-yl)phenyl)(4-hydroxypiperidin-1-yl)methanone] | –
– | < 249 nM | – | – | CC(C)[C@H](N)C(=O)OC1CCN(C(=O)c2ccc(-c3cc(-c4ccnc(C5(CO)CC5)c4)cs3)c(Cl)c2)CC1 [Compound I-1629122, 1-(3-chloro-4-(4-(2-(1-(hydroxymethyl)cyclopropyl)pyridin-4-yl)thiophen-2-yl)benzoyl)piperidin-4-yl L-valinate] | –
+ (0-30 = +) | < 249 nM | ++ (30.1-60 = ++) | – | O=C(c1ccc(-c2cc(-c3ccnc4c3NCCN4)cs2)c(Cl)c1)N1CCC(O)CC1 [Compound I-1629068, (3-chloro-4-(4-(l,2,3,4-tetrahydropyrido[2,3-b]pyrazin-8-yl)thiophen-2-yl)phenyl)(4-hydroxypiperidin-1-yl)methanone] | ++ (0.31-0.7509 = ++)
+ (0-30 = +) | > 500 nM | + (0-30 = +) | – | CC1(O)CCN(C(=O)c2ccc(-c3cc(-c4ccnc(C5(CO)CC5)c4)cs3)c(Cl)c2)CC1 [Compound I-1629069, (3-chloro-4-(4-(2-(l-(hydroxymethyl)cyclopropyl)pyridin-4-yl)thiophen-2-yl)phenyl)(4-hydroxy-4-methylpiperidin-1-yl)methanone] | + (>0.751 = +)
+ (0-30 = +) | < 249 nM | + (0-30 = +) | – | O=C(c1ccc(-c2cc(-c3ccnc4c3OCCN4)cs2)c(Cl)c1)N1CCC(O)CC1 [Compound I-1629067, (3-chloro-4-(4-(3,4-dihydro-2H-pyrido[3,2-b][1,4]oxazin-8-yl)thiophen-2-yl)phenyl)(4-hydroxypiperidin-1-yl)methanone] | ++ (0.31-0.7509 = ++)
+++ (≥60.1 = +++) | < 249 nM | – | – | O=C(c1ccc(-c2cc(-c3ccnc(C4(CO)CC4)c3)cs2)c(Cl)c1)N1CC[C@H](O)[C@@H](F)C1 [Compound I-1629121, (3-chloro-4-(4-(2-(l-(hydroxymethyl)cyclopropyl)pyridin-4-yl)thiophen-2-yl)phenyl)((3S,4S)-3-fluoro-4-hydroxypiperidin-1-yl)methanone] | –
+++ (≥60.1 = +++) | 250 to 500 nM | + (0-30 = +) | – | O=C(c1ccc(-c2cc(-c3ccnc(C4CCCO4)c3)cs2)c(Cl)c1)N1CCC(O)CC1 (centres unmarked) [Compound I-1628777, (3-chloro-4-(4-(2-(tetrahydrofuran-2-yl)pyridin-4-yl)thiophen-2-yl)phenyl)(4-hydroxypiperidin-1-yl)methanone] | ++ (0.31-0.7509 = ++)
+++ (≥60.1 = +++) | > 500 nM | + (0-30 = +) | – | O=C(c1ccc(-c2cc(-c3ccnc(C4(CO)CCC4)c3)cs2)c(Cl)c1)N1CCC(O)CC1 [Compound I-1629089, (3-chloro-4-(4-(2-(1-(hydroxymethyl)cyclobutyl)pyridin-4-yl)thiophen-2-yl)phenyl)(4-hydroxypiperidin-1-yl)methanone] | –
+++ (≥60.1 = +++) | > 500 nM | +++ (≥60.1 = +++) | – | O=C(c1ccc(-c2cc(-c3ccnc(OC4COC4)c3)cs2)c(Cl)c1)N1CCC(O)CC1 [Compound I-1629100, (3-chloro-4-(4-(2-(oxetan-3-yloxy)pyridin-4-yl)thiophen-2-yl)phenyl)(4-hydroxypiperidin-1-yl)methanone] | –
+++ (≥60.1 = +++) | < 249 nM | +++ (≥60.1 = +++) | – | O=C(c1ccc(-c2cc(-c3ccnc(O[C@@H]4CO[C@H]5[C@@H]4OC[C@H]5O)c3)cs2)c(Cl)c1)N1CCC(O)CC1 [Compound I-1629106, (3-chloro-4-(4-(2-(((3R,3aR,6R,6aR)-6-hydroxyhexahydrofuro [3,2-b]furan-3-yl)oxy)pyridin-4-yl)thiophen-2-yl)phenyl)(4-hydroxypiperidin-1-yl)methanone] | –
– | < 249 nM | – | – | O=C(c1ccc(-c2cc(-c3ccnc4c3OCC(CO)O4)cs2)c(Cl)c1)N1CCC(O)CC1 (racemic) [Compound I-1629181, (3-chloro-4-(4-(3-(hydroxymethyl)-2,3-dihydro-[1,4]dioxino[2,3-b]pyridin-8-yl)thiophen-2-yl)phenyl)(4-hydroxypiperidin-1-yl)methanone] | –
– | – | – | < 249 nM | CC(C)[C@H](N)C(=O)OCC1(c2cc(-c3csc(-c4ccc(C(=O)N5CCC(O)CC5)cc4Cl)c3)ccn2)CC1 [Compound I-1629123, (l-(4-(5-(2-chloro-4-(4-hydroxypiperidine-1-carbonyl)phenyl)thiophen-3-yl)pyridin-2-yl)cyclopropyl)methyl L-valinate] | –
+++ (≥60.1 = +++) | > 500 nM | +++ (≥60.1 = +++) | – | CC(C)(O)COc1cc(-c2csc(-c3ccc(C(=O)N4CCC(O)CC4)cc3Cl)c2)ccn1 [Compound I-1629101, (3-chloro-4-(4-(2-(2-hydroxy-2-methylpropoxy)pyridin-4-yl)thiophen-2-yl)phenyl)(4-hydroxypiperidin-1-yl)methanone] | –

Compound | percent remaining after 60 min in mouse liver microsomes [1] | EC50 ([2]; Homo sapiens) | percent remaining after 60 min in human liver microsomes [3] | EC50 [2] | A: ACACA, effect of compounds on gene expression of HepG2 cells [4]
O=C(c1ccc(-c2cc(-c3ccnc(OC4CC(O)C4)c3)cs2)c(Cl)c1)N1CCC(O)CC1 (centres unmarked) [Compound I-1629124, (3-chloro-4-(4-(2-(3-hydroxycyclobutoxy)pyridin-4-yl)thiophen-2-yl)phenyl)(4-hydroxypiperidin-1-yl)methanone] | +++ (≥60.1 = +++) | < 249 nM | – | – | –
O=C(c1ccc(-c2cc(-c3ccnc(OC4CC(CO)C4)c3)cs2)c(Cl)c1)N1CCC(O)CC1 (centres unmarked) [Compound I-1629110, (3-chloro-4-(4-(2-(3-(hydroxymethyl)cyclobutoxy)pyridin-4-yl)thiophen-2-yl)phenyl)(4-hydroxypiperidin-1-yl)methanone] | +++ (≥60.1 = +++) | < 249 nM | +++ (≥60.1 = +++) | – | –

Reference: US20230147993A1, “THIOPHENE COMPOUNDS WITH CYCLIC AMIDES, AND USES THEREOF” (Capulus Therapeutics, LLC, priority 2019, published 2023)
